Measured values taken from ChEMBL document CHEMBL3792339, “Identification of new quinic acid derivatives as histone deacetylase inhibitors by fluorescence-based cellular assay” (Bioorg Med Chem Lett, 2016).
Active and inactive are the calls of the source. No cut-off for these calls is given here.

What was measured:
[1] = system: C127-LT; assay: Inhibition of HDAC in mouse C127-LT cells assessed as activation of EGFP expression at 10 uM after 24 hrs by fluorescence microscopy; format: cell-based
[2] = target: Histone deacetylase; assay: Inhibition of HDAC in human HeLa cells using Boc-Lys(AC)-AMC as substrate after 24 to 48 hrs by spectrofluorometry; format: cell-based
[3] = target: Histone deacetylase; assay: Inhibition of HDAC in human HeLa nuclear extract using fluor de lys as substrate after 10 to 15 mins by spectrofluorometry; format: protein assay
[4] = system: C127-LT; assay: Inhibition of HDAC in mouse C127-LT cells assessed as activation of EGFP expression at 1 uM after 24 hrs by fluorescence microscopy; format: cell-based
[5] = system: C127-LT; assay: Inhibition of HDAC in mouse C127-LT cells assessed as activation of EGFP expression at 200 nM after 24 hrs by fluorescence microscopy; format: cell-based
[6] = target: T1, Histone deacetylase (Homo sapiens) (UniProt Q13547+O15379+Q9UBN7+Q92769+Q9UQL6+Q8WUI4+Q9BY41+Q96DB2+P56524+Q9UKV0+Q969S8); details: at 10 to 25 µM
Description: Competitive inhibition of HDAC in human HeLa nuclear cells at 10 to 25 uM using Boc-acetyl-lysine-AMC as substrate after 30 mins by Lineweaver-Burk plot analysis

[7] = target: T1, Histone deacetylase (Homo sapiens); assay: Inhibition of HDAC in human HeLa nuclear extract assessed as accumulation of acetylated histone H3 at 0.1 to 100 uM after 24 hrs by western blot analysis; format: protein assay

SMILES	inhibition [1]	also measured
COc1cc2c3c(cc4ccccc4c3c1O)NC2=O	inactive	–
O=C(/C=C/c1ccc(O)c(O)c1)O[C@@H]1C[C@@](O)(C(=O)O)C[C@@H](O)[C@@H]1O	inactive	IC50 [2]: > 200 µM; IC50 [3]: 170.4 µM
Nc1ccccc1NC(=O)c1ccc(CNC(=O)OCc2cccnc2)cc1	Active	inhibition [4]: Active
C=C1[C@@H]2[C@H]3OC(=O)[C@@H](CN[C@H](C(=O)O)C(C)C)[C@@H]3[C@@H](O)CC(=C)[C@@H]2C[C@@H]1O	inactive	–
C=C1CC[C@@H]2[C@](C)(CCC[C@]2(C)C(=O)O)[C@H]1CCC1=CC(OCCCC)OC1=O (some centres undefined)	inactive	–
CC(/C=C/C(=O)NO)=C\[C@@H](C)C(=O)c1ccc(N(C)C)cc1	–	inhibition [5]: Active
O=C(/C=C/c1ccc(O)c(O)c1)O[C@@H]1C[C@](O)(C(=O)O)C[C@@H](O)[C@H]1O [CHLOROGENIC ACID]	inactive	IC50 [2]: > 200 µM; IC50 [3]: > 200 µM
O=C(/C=C/c1ccc(O)c(O)c1)O[C@@H]1C[C@](O)(C(=O)O)C[C@@H](OC(=O)/C=C/c2ccc(O)c(O)c2)[C@H]1O	inactive	IC50 [2]: > 500 µM; IC50 [3]: 143.24 µM
C=C1[C@@H]2[C@H]3OC(=O)[C@@H](CN4CCC[C@H]4C(=O)O)[C@@H]3[C@@H](OC(=O)C(C)(O)CO)CC(=C)[C@@H]2C[C@@H]1O (some centres undefined)	inactive	–
C=C1C(=O)O[C@@H]2[C@H]3C(=C)[C@@H](O)C[C@H]3C(=C)C[C@H](OC(=O)CC(C)(C)O)[C@@H]12	inactive	–
COc1cc(-c2oc3cc(O)cc(O)c3c(=O)c2O[C@@H]2O[C@H](CO[C@@H]3O[C@@H](C)[C@H](O)[C@@H](O)[C@H]3O)[C@@H](O)[C@H](O)[C@H]2O)ccc1O	Active	–
C=C1[C@@H]2[C@H]3OC(=O)[C@@H](CN[C@@H](Cc4c[nH]c5ccccc45)C(=O)O)[C@@H]3[C@@H](O)CC(=C)[C@@H]2C[C@@H]1O	inactive	–
COc1cc2c(cc1OC)[C@@H]1Cc3ccc(O)c(O)c3CN1CC2	Active	–
CC(=O)OCCc1ccc(O)c(O)c1	Active	–
C=C1C(=O)O[C@@H]2[C@H]3C(=C)[C@@H](O)C[C@H]3C(=C)C[C@H](OC(=O)C(C)(O)CO)[C@@H]12 (some centres undefined)	inactive	–
COC(=O)[C@]1(O)C[C@@H](OC(=O)/C=C/c2ccc(O)c(O)c2)[C@@H](O)[C@H](OC(=O)/C=C/c2ccc(O)c(O)c2)C1	Active	inhibition [6]: Active; IC50 [2]: 7.59 µM; IC50 [3]: 4.99 µM; inhibition [7]: Active
COc1ccc2cc3[n+](cc2c1OC)CCc1cc2c(cc1-3)OCO2	Active	–
C=C(CO)C(=O)O[C@H]1CC(=C)[C@@H]2C[C@H](O)C(=C)[C@@H]2[C@H]2OC(=O)C(=C)[C@@H]21	inactive	–
